Patent publication US6385487B1, “Methods for electrokinetic delivery of medicaments” (Biophoretic Therapeutic Systems, LLC, priority 1996, dated 2002)

Assays:
[1] = system: mucocutaneous Herpes Simplex (Type I and Type II) eruptions; test: Clinical study: iontophoretic application of antiviral agent to herpes lesions (Stage 1 treatment); assay type: in vivo, human; details: for No response (count, Stage 1 treatment results) / Some response (count, Stage 1 treatment results): iontophoretic 10-15 minute application to lesion, 0.2 ma-0.6 ma, evaluated in 24 hours; for Major response (count, Stage 1 treatment results): iontophoretic 10-15 minute application, major response = resolution of pain in <6 hours and lesion crusted and healing within 24 hours
Description: The inventor has conducted a clinical study using a prototype iontophoretic device in accordance with the present invention for the treatment of cold sores. The clinical response was promising. A second independent, qualified investigator, a board-certified Urologist, conducted a study using the present apparatus and method for treating male genital herpes lesions with encouraging results. Table 1 summarizes data (discussed below) supporting the claim to unexpected clinical benefits treating disease with this novel method. The method and medicament application device when used together for treating these common, embarrassing, and previously not easily-treatable ailments provide surprising advantages.
The embodiment of the device shown in FIG. 1 and described hereinabove is an improvement over the prototype used in the clinical study, which was a larger unit, not user-friendly, which required physically connecting wires to the patient's body which created anxiety, and could not be used without attending personnel. Notwithstanding design, the apparatus used in the clinical study summarized in Table 1 employed electronics similar to the apparatus described herein and was used to optimize the clinical performance of the embodiment 12 of the device described herein.
(§1) The clinical studies included patient volunteers with full informed consent who suffered from recurrent cold sores. […] The treatment incorporated an electrode saturated with Acyclovir® ointment (ZOVIRAX®) or IUDR (STOXIL®) ophthalmic drops as supplied by the manufacturer. Thus mounted Anodic electrode of the prototype system was used for a 10-15 minute application directly to the lesion with the average current setting of 0.2 ma-0.6 ma which was well tolerated by all patients.
(§2) The lesion was evaluated in 24 hours. In 92% of the iontophoretically treated cases (>70 lesions treated) a major response was noted. A major response was categorized by resolution of pain in <6 hours and lesion crusted and healing within 24 hours. The normal course of cold sores involves an average period of 10-12 days before resolution and healing occurs. The present apparatus and clinical method for treatment of mucocutaneous Herpes Simplex (Type I and Type II) eruptions presented herein have been described and performed with excellent results. This novel user-friendly apparatus in combination with the disclosed clinical treatment method presents a very effective new treatment for Herpes Simplex eruptions.

herpes lesions = test: Control group: patients with concurrent herpes lesions, one treated iontophoretically, the other by repeated topical application of the same agent; assay type: in vivo, human; details: for Major Response (count), Control lesion / No Response (count), Control lesion / Some Response (count), Control lesion: repeated unassisted topical application of the same antiviral agent; for Major Response (count), Treated lesion / No Response (count), Treated lesion / Some Response (count), Treated lesion: iontophoretically treated lesion, single 10-15 minute treatment; for Outcome of unassisted topically treated lesions: repeated topical application, compared with resolution in 24 hours; for Outcome of iontophoretically treated lesions: single 10-15 minute iontophoretic treatment, all treated lesions
Description: The study included a control situation wherein seven patients were found who had simultaneous concurrent herpes lesions at separate locations on their bodies. In each case, one lesion was treated with iontophoretic application of antiviral agent (Acyclovir® or IUDR) and the other lesion was treated in the standard method employed in the prior art comprising repeated topical application of the same antiviral agent.
as §1, §2

`O=c1[nH]c(=O)n([C@H]2C[C@H](O)[C@@H](CO)O2)cc1I` [IUDR, 5-iodo-2 deoxyuridine] was tested, and the “No response (count, Stage 1 treatment results)” value [1] was 1, the “Some response (count, Stage 1 treatment results)” value [1] was 1 and the “Major response (count, Stage 1 treatment results)” value [1] was 26. For the same molecule, the “Major Response (count), Control lesion” value (herpes lesions) was 0, the “No Response (count), Control lesion” value (herpes lesions) was 5 and the “Some Response (count), Control lesion” value (herpes lesions) was 2. The “Major Response (count), Treated lesion” value (herpes lesions) was 7, the “No Response (count), Treated lesion” value (herpes lesions) was 0 and the “Some Response (count), Treated lesion” value (herpes lesions) was 0. The “Outcome of unassisted topically treated lesions” value (herpes lesions) was “none of the unassisted topically treated lesions demonstrated a similar response” and the “Outcome of iontophoretically treated lesions” value (herpes lesions) was “resolution in 24 hours”.
With `Nc1nc2c(ncn2COCCO)c(=O)[nH]1` [ACYCLOVIR ®, 2-amino-1,9-dihydro-9-[(2-hydroxyethoxy)methyl]-6H-purin-6-one] the “No response (count, Stage 1 treatment results)” value [1] was 1, the “Some response (count, Stage 1 treatment results)” value [1] was 3 and the “Major response (count, Stage 1 treatment results)” value [1] was 42. For the same molecule, the “Major Response (count), Control lesion” value (herpes lesions) was 0, the “No Response (count), Control lesion” value (herpes lesions) was 1 and the “Some Response (count), Control lesion” value (herpes lesions) was 0. For the same molecule, the “Major Response (count), Treated lesion” value (herpes lesions) was 1, the “No Response (count), Treated lesion” value (herpes lesions) was 0 and the “Some Response (count), Treated lesion” value (herpes lesions) was 0. The “Outcome of unassisted topically treated lesions” value (herpes lesions) was “none of the unassisted topically treated lesions demonstrated a similar response” and the “Outcome of iontophoretically treated lesions” value (herpes lesions) was “resolution in 24 hours”.
